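Briefly, cells in 96-well plates were exposed to five compound concentrations for 48 h, and endpoints were estimated by linear interpolation. GI50 marks 50% less growth. TGI is the concentration that stops growth completely.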
Experiments:
Experiment in all cases: NCI tumour cell line growth inhibition, 48 h
EKVX NSCLC = test system: EKVX NSCLC
SF-268 CNS = test system: SF-268 CNS
SNB-19 CNS = test system: SNB-19 CNS
SR leukemia = test system: SR leukemia
LOX IMVI melanoma = test system: LOX IMVI melanoma
OVCAR-8 ovarian = test system: OVCAR-8 ovarian
SK-MEL-5 melanoma = test system: SK-MEL-5 melanoma
UACC-62 melanoma = test system: UACC-62 melanoma
MOLT-4 leukemia = test system: MOLT-4 leukemia
MDA-MB-435 = test system: MDA-MB-435

Row | Structure (SMILES) | TGI (EKVX NSCLC) [µM] | TGI (SF-268 CNS) [µM] | TGI (SNB-19 CNS) [µM] | TGI (SR leukemia) [µM] | TGI (LOX IMVI melanoma) [µM] | TGI (OVCAR-8 ovarian) [µM] | TGI (SK-MEL-5 melanoma) [µM] | TGI (UACC-62 melanoma) [µM] | TGI (MOLT-4 leukemia) [µM] | TGI (MDA-MB-435) [µM] | GI50 (UACC-62 melanoma) [µM] | GI50 (EKVX NSCLC) [µM] | GI50 (SF-268 CNS) [µM] | GI50 (MDA-MB-435) [µM] | GI50 (SNB-19 CNS) [µM] | GI50 (SR leukemia) [µM] | GI50 (MOLT-4 leukemia) [µM] | GI50 (LOX IMVI melanoma) [µM] | GI50 (OVCAR-8 ovarian) [µM] | GI50 (SK-MEL-5 melanoma) [µM]
1 | CCOC(=O)/C=C(\C)c1ccc(OC)cc1 | > 100 | > 100 | > 100 | > 100 | > 100 | > 100 | > 100 | – | – | – | – | – | – | – | – | – | – | – | – | –
2 | Cc1ccc(S(N)(=O)=O)cc1 | > 1000 | > 1000 | > 1000 | > 1000 | > 1000 | > 1000 | > 1000 | > 1000 | > 1000 | > 1000 | – | – | – | – | – | – | – | – | – | –
3 | NCc1ccc(C(=O)O)cc1 | > 100 | > 100 | > 100 | > 100 | > 100 | > 100 | > 100 | > 100 | > 100 | > 100 | – | – | – | – | – | – | – | – | – | –
4 | COc1cc(C2c3cc4c(cc3[C@@H](Nc3cccc(C(C)=O)c3)C3COC(=O)[C@H]23)OCO4)cc(OC)c1O (stereo partly drawn) | > 22.3 | 13.1 | 4.79 | – | 4.38 | > 28.9 | 2.37 | 4.67 | 0.129 | – | – | – | – | – | – | – | – | – | – | –
5 | Brc1ccccc1-c1ncc(-c2ccccc2)o1 | > 100 | > 100 | > 100 | – | 34.1 | > 100 | 34.5 | > 100 | 49.6 | 60.4 | – | – | – | – | – | – | – | – | – | –
6 | COc1ccc(-c2cc(N3CCN(c4ccccc4)CC3)c(C#N)c(=O)o2)cc1 | > 100 | 49.3 | 49.8 | > 100 | > 100 | > 100 | > 100 | – | > 100 | – | – | – | – | – | – | – | – | – | – | –
7 | N#Cc1c(NC(=S)NC(=O)c2ccccc2)nc2c(c1-c1ccccc1)CCCC2 | – | 27.2 | > 100 | > 100 | > 100 | > 100 | > 100 | > 100 | > 100 | > 100 | – | – | – | – | – | – | – | – | – | –
8 | CCC(C)C(=O)c1c(O)c(C/C=C(\C)CCC=C(C)C)c(O)c2c(C(O)CC)cc(=O)oc12 (stereo not drawn) | 10.1 | 10.8 | 16.2 | 3.48 | 12.6 | – | 2.74 | 5.15 | 3.94 | – | – | – | – | – | – | – | – | – | – | –
9 | CC(C)(Br)C1(O)CCCN1C(=O)c1ccccc1 (stereo not drawn) | > 100 | > 100 | > 100 | > 100 | > 100 | > 100 | > 100 | > 100 | > 100 | – | – | – | – | – | – | – | – | – | – | –
10 | C#CC[C@@H]1C[C@]2(C)[C@H]3CC=C4[C@H]5CC(C)(C)CC[C@]5(C(=O)NCCCCN)CC[C@@]4(C)[C@]3(C)CC[C@H]2C(C)(C)[C@H]1OC(C)=O | 3.3 | 3.62 | – | – | – | – | – | 3.34 | – | 3.1 | 1.86 | 1.69 | 1.73 | 1.69 | – | – | – | – | – | –
11 | ClCc1c(Cl)c(Cl)c(Cl)c(CCl)c1Cl | 4.15 | – | 4.23 | 5 | 3.13 | 6.03 | 6.25 | 3.13 | 5.86 | 5.68 | 1.61 | 1.81 | – | 2.16 | 1.94 | 1.48 | 2.41 | 1.46 | 2.51 | 2.23
12 | CCO/N=[N+](\[O-])N(CC)CC | > 100 | > 100 | > 100 | > 100 | > 100 | > 100 | > 100 | > 100 | > 100 | – | – | – | – | – | – | – | – | – | – | –

— PubChem BioAssay (NCI)
